Results reported in ChEMBL document CHEMBL1146479, “Antineoplastic agents. 522. Hernandia peltata (Malaysia) and Hernandia nymphaeifolia (Republic of Maldives)” (2004).
Values after ≈ are worked out from the molar mass of the structure shown.

Assays:
Type in all cases: functional
[1] = tested on: Neisseria gonorrhoeae; assay: Antimicrobial activity against Neisseria gonorrhoeae ATCC 49226 by antimicrobial susceptibility testing
[2] = tested on: DU-145; assay: Anticancer activity against human DU145 cells after 48 hrs by SRB assay; settings: DU-145, 48 h, read-out: ED50 (the source's name)
[3] = tested on: P388; assay: Anticancer activity against mouse P388 cells after 48 hrs; settings: P388, 48 h, read-out: ED50 (the source's name)
[4] = tested on: BXPC-3; assay: Anticancer activity against human BxPC3 cells after 48 hrs by SRB assay; settings: BXPC-3, 48 h, read-out: ED50 (the source's name)
[5] = tested on: MCF7; assay: Anticancer activity against human MCF7 cells after 48 hrs by SRB assay; settings: MCF7, 48 h, read-out: ED50 (the source's name)
[6] = tested on: SF-268; assay: Anticancer activity against human SF268 cells after 48 hrs by SRB assay; settings: SF-268, 48 h, read-out: ED50 (the source's name)
[7] = tested on: NCI-H460; assay: Anticancer activity against human NCI-H460 cells after 48 hrs by SRB assay; settings: NCI-H460, 48 h, read-out: ED50 (the source's name)
[8] = tested on: KM-20L2; assay: Anticancer activity against human KM20L2 cells after 48 hrs by SRB assay; settings: KM-20L2, 48 h, read-out: ED50 (the source's name)

| MIC [1] | Structure (SMILES) | EC50 [2] | EC50 [3] | EC50 [4] | EC50 [5] | EC50 [6] | EC50 [7] | EC50 [8] |
| --- | --- | --- | --- | --- | --- | --- | --- | --- |
| 32 µg/mL (≈ 82.8 µM) | COc1ccc(C[C@H]2COC(=O)[C@@H]2Cc2ccc(OC)c(OC)c2)cc1OC | – | – | – | – | – | – | – |
| 32 µg/mL (≈ 82.4 µM) | COc1ccc(CC2COC(O)C2Cc2ccc(OC)c(OC)c2)cc1OC (stereo not given) [KUSUNOKINOL] | – | – | – | – | – | – | – |

The remaining lines, values behind:

| Structure (SMILES) | MIC [1] | EC50 [2] | EC50 [3] | EC50 [4] | EC50 [5] | EC50 [6] | EC50 [7] | EC50 [8] |
| --- | --- | --- | --- | --- | --- | --- | --- | --- |
| COc1cc([C@@H]2OC[C@H]3[C@@H]2CO[C@@H]3c2ccc3c(c2)OCO3)cc(OC)c1OC | – | > 10 µg/mL | 1.5 µg/mL (≈ 3.75 µM) | > 10 µg/mL | > 10 µg/mL | > 10 µg/mL | > 10 µg/mL | > 10 µg/mL |
| COc1ccc([C@H]2OC[C@H]3[C@@H]2CO[C@H]3c2ccc(OC)c(OC)c2)cc1OC | – | 3.1 µg/mL (≈ 8.02 µM) | 1.7 µg/mL (≈ 4.4 µM) | 3.4 µg/mL (≈ 8.8 µM) | 3.5 µg/mL (≈ 9.06 µM) | 3.8 µg/mL (≈ 9.83 µM) | 3.8 µg/mL (≈ 9.83 µM) | 3 µg/mL (≈ 7.76 µM) |
| COc1cc2c(c(OC)c1OC)[C@]13C=C(O)C(=O)C=C1O[C@H]2[C@H]1C(=O)OC[C@@H]1C3 | 32 µg/mL (≈ 79.9 µM) | – | – | – | – | – | – | – |
| COc1cc(CC2C(Cc3ccc4c(c3)OCO4)COC2O)cc(OC)c1OC (stereo not given) [CLUSIN] | 32 µg/mL (≈ 79.5 µM) | – | – | – | – | – | – | – |
| COc1cc([C@@H]2c3cc4c(cc3C[C@H]3COC(=O)[C@H]32)OCO4)cc(OC)c1OC [DEOXYPICROPODOPHYLLIN] | 32 µg/mL (≈ 80.3 µM) | 0.051 µg/mL (≈ 0.128 µM) | 0.03 µg/mL (≈ 0.0753 µM) | 0.061 µg/mL (≈ 0.153 µM) | 0.026 µg/mL (≈ 0.0653 µM) | 0.041 µg/mL (≈ 0.103 µM) | 0.067 µg/mL (≈ 0.168 µM) | 0.054 µg/mL (≈ 0.136 µM) |
| COc1cc([C@@H]2c3cc4c(cc3C[C@H]3COC(=O)[C@@H]32)OCO4)cc(OC)c1OC [DESOXYPODOPHYLLOTOXIN] | 32 µg/mL (≈ 80.3 µM) | 0.0028 µg/mL (≈ 0.00703 µM) | 0.0023 µg/mL (≈ 0.00577 µM) | 0.0029 µg/mL (≈ 0.00728 µM) | 0.0021 µg/mL (≈ 0.00527 µM) | 0.0033 µg/mL (≈ 0.00828 µM) | 0.0027 µg/mL (≈ 0.00678 µM) | 0.0028 µg/mL (≈ 0.00703 µM) |
| COc1cc(C[C@H]2COC(=O)[C@@H]2Cc2cc(OC)c(OC)c(OC)c2)ccc1O [HERNANOL] | 32 µg/mL (≈ 79.5 µM) | – | – | – | – | – | – | – |
| COc1cc([C@@H](O)[C@H]2C(=O)OC[C@@H]2Cc2ccc3c(c2)OCO3)cc(OC)c1OC [PODORHIZOL] | 32 µg/mL (≈ 76.8 µM) | > 10 µg/mL | > 1 µg/mL | 3.8 µg/mL (≈ 9.13 µM) | 6.6 µg/mL (≈ 15.8 µM) | > 10 µg/mL | > 10 µg/mL | > 10 µg/mL |
| COc1cc2c(c(OC)c1OC)-c1cc3c(cc1C[C@H]1COC(=O)[C@@H]1C2)OCO3 [STEGANE] | – | 5.3 µg/mL (≈ 13.3 µM) | 6.1 µg/mL (≈ 15.3 µM) | 4.7 µg/mL (≈ 11.8 µM) | 4.3 µg/mL (≈ 10.8 µM) | 4.9 µg/mL (≈ 12.3 µM) | 5.8 µg/mL (≈ 14.6 µM) | 4.8 µg/mL (≈ 12 µM) |
